Test results taken from patent publication US20090311214A1, “COMPOSITIONS AND METHODS FOR THE INNATE IMMUNE RESPONSE PATHWAY” (UNIVERSITY OF MARYLAND, BALTIMORE, priority 2008, published 2009).
Entries after “also recorded” stand apart in the source; their conditions may differ.

Tests used:
Format in all cases: cell-based, human
[1] = system: IFNγ-treated immDC; experiment: IFNγ-treated immDC exposed to PTG with or without IL-1ra or IL-1β; conditions: addition to IFNγ-treated immDC
Protocol: IL-23 is only secreted by activated APC such as monocytes, macrophages and DC, which reduces the number of possible cell sources considerably. To determine which of these cell populations was the source of IL-23 in response to PTG, purified lymphocytes, monocytes, or monocyte-derived DC cultured with GM-CSF and IL-4, were incubated in the presence or absence of PTG for 24 h, at which time supernatants were collected for IL-23, IL-1β, IL-6, IFNγ and TNFα analysis. […] Since neither PTG nor β-glucan activated cytokine production in DC differed from monocytes, we examined the response after pretreatment with IFNγ, given that this treatment has been necessary for the IL-23 response to a variety of agents including β-glucan. immDC were cultured in the presence or absence of IFNγ for 18 h prior to addition of PTG, after which supernatants were subjected to cytokine analysis as described above. […] Moreover, these findings provide insight to the mechanisms in which IFNγ counteracts IL-1 dependent TH17 responses. […]

[2] = system: PBMC; experiment: PBMC pretreated with IL-1ra before stimulation with PTG or β-glucan
Protocol: Considering the essential role for IL-1β in the IL-23/TH17 innate response in purified monocytes, we predicted that IL-1β regulates the cytokine profile triggered by PTG and β-glucan in whole PBMC as well. To this end, PBMC were pretreated with IL-1ra for 1 h prior to stimulation with PTG or β-glucan, or incubated with 5 ng/ml IL-1β alone for 20 h.
(§1) PBMC cultures. PBMC from CD patients and HLA-DQ2^+ healthy controls was tested as follows. 10^6 PBMC/ml were incubated in RPMI-1640 supplemented with 10% heat inactivated hAB, 1% L-glutamine, 1% Pen-Strep and 20 mM Hepes Buffer (cRPMI) with and without PTG, β-glucan, 5 ng/ml rhIL-1β, or 10 μg/ml pooled synthetic 20 mers of α-gliadin in 96 well U-bottom plates (Denville Scientific Inc.) at 37° C. in 5% CO2 for 6, 24, 48, or 72 h. Alternatively, 10^6 PBMC/ml were incubated with 0.5 μg/ml rhIL-1ra at 37° C. in 5% CO2 for 1 h then cultured with and without 100 μg/ml PTG or 500 μg/ml β-glucan for an additional 20 h. Cell-free culture supernatants were harvested for cytokine and chemokine analysis.
(§2) Cytokine & chemokine analysis. Cell-free culture supernatants were analyzed for IL-1β, IL-1ra, IL-6, IL-12p70, IFNγ, TNFα (Bio-Plex Cytokine Assay kit, Bio-Rad) or IL-1β, IL-23 (ELISA kit, eBiosciences), IL-1ra and CCL20 (Quantikine ELISA kit, R & D Systems) following the manufacturers' protocols. Appropriate standard curves were included in each assay.

[3] = system: monocytes; experiment: Purified monocytes pretreated with IL-1ra before PTG or β-glucan
Protocol: To better understand the contribution of IL-1 signaling in the IL-23/TH17 innate response to PTG in monocyte and immDC populations, we pretreated monocytes, immDC and IFNγ-treated immDC with the naturally occurring anti-inflammatory IL-1 receptor antagonist (IL-1ra) for 1 h prior to stimulation with PTG or β-glucan as a positive control, or incubated with increasing doses of exogenous IL-1β for 20 h. […] Contradictory to the monocyte response, addition of IL-1ra or IL-1β to IFNγ-treated immDC had no effect on the IL-23/TH17 profile induced by PTG exposure (FIG. 3D), providing further indication that monocytes exposed to gluten and not their progeny DC have the potential to activate autoreactive memory TH17 cells. Indeed, other groups have reported in human studies that activated monocytes, which produce IL-1β and IL-23, are the best inducers of TH17 cells (Evans et al., Proc. Natl. Acad. Sci., U.S.A., 104(43):17034-17039 (2007)).
(§3) Elutriated monocyte cultures. 5×10^5 monocytes/ml were cultured in cRPMI with and without 100 μg/ml PTG, 100 μg/ml β-glucan, or 0.5-50 ng/ml rhIL-1β in 96 well U-bottom plates at 37° C. in 5% CO2 for 20 h. Alternatively, 5×10^5 monocytes/ml were incubated with 0.5 μg/ml rhIL-1ra at 37° C. in 5% CO2 for 1 h then cultured with and without 100 μg/ml PTG or β-glucan for an additional 20 h. Cell-free culture supernatants were harvested for cytokine and chemokine analysis.
as §2

[4] = system: monocytes; experiment: Purified lymphocytes, monocytes or monocyte-derived DC with PTG, β-glucan or IL-1β
Protocol: IL-23 is only secreted by activated APC such as monocytes, macrophages and DC, which reduces the number of possible cell sources considerably. To determine which of these cell populations was the source of IL-23 in response to PTG, purified lymphocytes, monocytes, or monocyte-derived DC cultured with GM-CSF and IL-4, were incubated in the presence or absence of PTG for 24 h, at which time supernatants were collected for IL-23, IL-1β, IL-6, IFNγ and TNFα analysis. […] Since neither PTG nor β-glucan activated cytokine production in DC differed from monocytes, we examined the response after pretreatment with IFNγ, given that this treatment has been necessary for the IL-23 response to a variety of agents including β-glucan. immDC were cultured in the presence or absence of IFNγ for 18 h prior to addition of PTG, after which supernatants were subjected to cytokine analysis as described above. […] Moreover, these findings provide insight to the mechanisms in which IFNγ counteracts IL-1 dependent TH17 responses.
While IL-1β is produced by many cell types, IL-23 production is thought to be restricted to activated APC. […] To investigate this hypothesis, we exposed purified lymphocytes, monocytes, or monocyte-derived DC (cultured with GM-CSF and IL-4 for 72 h) to PTG overnight and analyzed the cell-free culture supernatants for IL-23 and related “Th17” polarizing mediators.
as §3, with “Cell-free culture supernatants were harvested for cytokine and chemokine analysis.” left out
as §2, with “Appropriate standard curves were included in each assay.” left out

[5] = system: PBMC; experiment: PBMC cultures with PTG, β-glucan, IL-1β or α-gliadin peptides; cytokine/chemokine analysis of supernatants
Protocol: We cultured PBMC from HLA-DQ2 positive and HLA-DQ2 negative healthy persons in the presence or absence of 100 ug/ml of PTG or β-D-glucan from barley as a positive control for 20 h. Cell-free culture supernatants were harvested and analyzed for proinflammatory cytokines IL-1β, IL-6, IFNγ, TNFα (Luminex) IL-23 and the TH17 chemokine CCL20/MIP-3α (ELISA).
as §1, §2

[6] = monocytes, IL-1ra 1 h prior to stimulation
[7] = PBMC, 5 ng/ml IL-1β alone, 20 h

Row | Substance | effect on the IL-23/TH17 profile induced by PTG exposure [1] | IL-23 and IL-1β responses to PTG and β-glucan ([2]; 0.5 μg/ml IL-1ra 1 h prior, stimulation 20 h, mean of 10 experiments) | induction of IL-23 in response to PTG and β-glucan ([2]; PBMC from CD patients) | levels of IL-1β in PBMC treated with PTG or β-glucan ([2]; PBMC from CD patients) | IL-23, TNF-α, IL-6 and CCL20 responses to PTG and β-glucan ([2]; PBMC from healthy individuals, IL-1ra 1 h prior to stimulation, 20 h) | reduction of the IL-1β response ([2]; PBMC, IL-1ra 1 h prior to PTG or β-glucan, 20 h) [%] | IL-23, TNFα, IL-6 and CCL20 responses to PTG [3, 6] | cytokine response to β-glucan [3, 6] | IL-23 responses to PTG and β-glucan ([3]; purified monocytes, 0.5 μg/ml IL-1ra, 20 h) | IL-1β and IL-23 responses generated by monocytes exposed to gliadin ([3]; summary statement) | IL-23 response of monocytes to exogenous IL-1β ([4]; 0.5, 5 or 50 ng/ml rhIL-1β, 20 h) | capacity to activate IL-23 secretion, reduced compared to PTG or β-glucan ([4]; purified monocytes, 20 h, means of 5 experiments) [fold] | CCL20 and IL-6 produced compared with PTG [5, 7] | IL-23 and TNFα produced compared with PTG [5, 7] | capacity to stimulate IL-23 production, lower than that of PTG or β-glucan ([5]; PBMC, 5 ng/ml IL-1β, 20 h, mean of 10 experiments) [fold] | IL-23 production by IL-1β alone relative to PTG and β-glucan ([5]; PBMC, physiologic concentrations of exogenous IL-1β) | cell source of IL-23, IL-1β, CCL20, TNFα and IL-6 secretion ([4]; purified lymphocytes, monocytes, monocyte-derived DC, 100 μg/ml PTG, 24 h) | dose dependence of IL-1β and IL-23 production ([5]; PBMC from CD patients, 25-500 μg/ml, 24 h) | IL-23 response in HLA-DQ2+ compared to HLA-DQ2 negative healthy individuals ([5]; PBMC, 24 h) | concentration at which detectable levels of IL-23 were achieved ([5]; dose response curves, PBMC from CD patients, 24 h) [µg/mL]
1 | IL-1ra: naturally occurring anti-inflammatory IL-1 receptor antagonist; recombinant human, purchased from R & D Systems | had no effect | significantly inhibits | completely inhibited | markedly reduced | inhibits; also recorded: almost completely inhibited | ~60 | drastically inhibited | inhibited | significantly inhibited; also recorded: blocks | substantially inhibits | – | – | – | – | – | – | – | – | – | –
2 | IL-1β: recombinant human IL-1β purchased from R & D Systems | had no effect | – | – | – | – | – | – | – | – | – | dose dependent manner | ~10 | equivalent concentrations | reduced levels | ~10 | much lower levels | – | – | – | –
3 | β-D-glucan [β-glucan, reference compound] | – | – | – | – | – | – | – | – | – | – | – | – | – | – | – | – | confined to monocytes | dose-dependent production | substantially more IL-23; also recorded: more pronounced effect | 500
